The values that follow come from patent US20040043403A1, “Process for determining the biological activity of epidermal growth factor receptor tyrosine kinase inhibitors” (priority 2000, published 2004).

In experiment [1] the test system is NCI-H520. As to the kind of experiment: Real time RT-PCR gene expression in NCI-H520 cells. The experiment is classed as cell-based, human. To be noted: NCI-H520, 3 μM, 24 h; relative to DMSO-treated NCI-H520 calibrator. How it is done:
20 million tissue culture cells (about 80% confluent) or 200 million WBCs are incubated for 2 or 24 h in culture medium containing 3 μM of an EGFR tyrosine kinase inhibitor or 0.03% DMSO. Total RNA from cell pellet is isolated using the RNeasy kit (Qiagen). mRNA is isolated using the oligotex mRNA purification kit (Qiagen). The quality of the obtained mRNA is tested by real time RT-PCR using beta-Actin primers (PE Applied Biosystems) with an amplicon size of 300 base pairs (bp). The total RNA is used as a reference to calculate the amount of mRNA-enrichment in the oligotex purified samples. The primers and probes are designed from mRNA sequences within the coding region or in the 3′ untranslated region (Table 2). For real time RT-PCR, RNA concentrations between 1 and 50 ng/reaction are used to obtain signals between 15-35 cycles. For each RNA preparation RT-PCR reactions are performed with and without reverse transcriptase to check for genomic DNA contamination. In all RNA samples tested, genomic DNA contamination is less than 1%. To normalize for variability in the initial concentration and quality of the total RNA, Glyceraldehyde-3-phosphate dehydrogenase (GAPDH) is used as an endogenous reference in all quantification experiments. For RT-PCR a one step, two-enzyme system is chosen. The TaqMan PCR Core Reagent Kit (PE #N808-0228) plus the reverse transcriptase MuLV (PE Biosystems # N808-0018) and RNase inhibitor (Roche Diagnostics # 799 025) are mixed as described in the manufacturers protocol. Triplicate measurements are done for target and for reference reactions. […] RT-PCR reactions are done with RNA concentrations of 2.5, 5, 10, 20, 40 and 80 ng per reaction. […] The ΔCT value is determined by subtracting the average reference CT values from the average target CT values of the three measurements. Relative quantification is performed in triplicates, reference and target, using the RT-PCR protocol described above. […] Expression levels for the three genes, calculated relative to NCI-H520, show big differences between the various cell types (Table 5). […]
On the technique in general: Quantitative PCR measures a nucleic acid by following its amplification.

Experiment [2] concerns MDA-MB468. As to the kind of experiment: Western blot of clusterin induction in MDA-MB468 cells. The experiment is classed as cell-based, human. The note with it: MDA-MB468 cells (high levels of EGFR), 300 nM, 24 h, vs 0.03% DMSO. How it is done: An EGFR tyrosine kinase inhibitor is dissolved in DMSO to obtain a 10 mM stock solution. The stock solution is further diluted in culture medium to final concentrations of 10 nM to 3 μM. 3.5 million cells/100 mm dish/12 ml culture medium are incubated for 24 h in 5% CO2 at 37° C. The medium is replaced with medium containing the EGFR tyrosine kinase inhibitor or DMSO. Cells are incubated for 4 to 32 h. The frozen pellets are lysed in 500 μl of lysis buffer (50 mM Tris-HCl pH 7.5, 1% Sodium Dodecyl Sulfate (SDS)). To shear genomic DNA, the cell lysates are processed in a FastPrep instrument for 20 sec at a speed rating of 4, using the green […] tubes (Bio101#6040-6010). Protein concentrations are determined according to the PIERCE-method (BCA Protein Assay, Reagent A and B). Protein concentration of lysates is adjusted to 1 μg/μl with lysis buffer. 4 parts of cell lysates are mixed with 1 part of 5 fold concentrated Laemmli buffer, the lysates are stored at -20° C. 40 μl of cell lysate is heated for 3 min to 95° C. and directly loaded on to 10% or 15% SDS-PAGE gels. The gels are run at 130 V for 90 min under standard conditions. The separated proteins are semi-dry blotted on to a PVDF membrane (Immobilon-P, Millipore #IPVH 202 00) for 70 min with 45 mA per blot. […]

In the case of `C[C@@H](Nc1ncnc2[nH]c(-c3ccc(O)cc3)cc12)c1ccccc1` [COMPOUND A, (R)-6-(4-hydroxy-phenyl)-4-[(1-phenyl-ethyl)-amino]-7H-pyrrolo[2,3-d]pyrimidine], in experiment [1], the “Relative Clusterin expression” value amounted to 0.61 n-fold, the “Relative TRAIL expression” value came to 0.39 n-fold and the “Relative VAC-beta expression” value is on record as 0.75 n-fold. The “Clusterin induction, Western blot (FIG. 4)” value in experiment [2] is listed as “strong clusterin expression signals”.
